According to patent US20040029965A1, “Formulations for reducing or eliminating toxicity of enviromental hormones containing ursodeoxycholic acid” (priority 2000, published 2004):

Test system: Ovariectomized female B6C3F1 mice
Assay: Uterus weight changes by bisphenol A (uterine proliferation)
Assay type: in vivo
Experimental: Ovariectomized female B6C3F1 mice of 5 weeks old, the average weight of which was 18 to 22 g and had been bred in CRJ, were purchased. They were acclimated under the constant breeding conditions, i.e. the constant temperature of 24±1° C., the humidity of 60±10% and the light and darkness cycle of 12 hours, for one week and then, utilized in the experiment. The animals were supplied with solid feed purchased from Purina and supplied with water ad libitum. After acclimation, test materials dissolved in corn oil were subcutaneously injected once a day for 4 days. The test materials used herein, stock solutions of bisphenol A and UDCA were prepared using ethanol. 2 mg of bisphenol A dissolved in 0.2 ml of corn oil was administered to the mice alone or in combination with UDCA once a day. The administration dose of UDCA was 0.2 or 2.0 mg, and corn oil was administered to the solvent control.
The results are expressed as Mean±Standard Deviation values. ANOVA was performed to evaluate the mean distribution of administered groups. In case that the significance was recognized in ANOVA, the Student's t-test was carried out in the levels of p<0.05 and p<0.01.

Question: `CC(C)(c1ccc(O)cc1)c1ccc(O)cc1` [Bisphenol A, bisphenol A] was tested. Which “increase of the weight of uterus” value (2 mg of bisphenol A once a day, versus corn oil control) did it give?
Answer: about two-fold increased

Question: What about the “Mean weight of uterus ± SD” value (Bisphenol A 2 mg/day s.c. for 4 days, alone) of the same molecule?
Answer: 13.5 ± 1.75
